# From patent publication US9120785B2, “Pyridyl aminopyridines as Syk inhibitors” (Merck Sharp & Dohme Corp., priority 2011, dated 2015)
# Target: recombinant human GST-Syk (Homo sapiens (Human), UniProt P43405)
# Assay: Homogeneous Time-Resolved Fluorescence (HTRF) assay for the recombinant human Syk enzyme
# Assay type: biochemical
# Settings: recombinant human GST-Syk 5 pM, ATP 25 μM, 10-dose titration; read-out: rhSyk (nM) IC50
# Experimental: Homogeneous Time-Resolved Fluorescence (HTRF) Assay for the Recombinant Human Syk Enzyme:
# A recombinant GST-hSyk fusion protein was used to measure potency of compounds to inhibit human Syk activity. The recombinant human GST-Syk ([…] #08-176) (5 pM final concentration) was incubated with various concentrations of the inhibitor diluted in DMSO (0.1% final concentration) for 10 minutes at room temperature in 15 mM Tris-HCl (pH 7.5), 0.01% tween 20, 2 mM DTT in 384 well plate format. To initiate the reaction the biotinylated substrate peptide (250 nM final concentration) that contains the phosphorylation site for Syk was added with magnesium (5 mM final concentration) and ATP (25 μM final concentration). Final volume of the reaction was 10 μL. Phosphorylation of the peptide was allowed to proceed for 45 minutes at room temperature. To quench the reaction and detect the phosphorylated product, 2 nM of a Europium-anti-phosphotyrosine antibody (Perkin Elmer #AD0161) and 70 nM SA-APC (Perkin-Elmer #CR130-100) were added together in 15 mM Tris pH 7.5, 40 mM EDTA, 0.01% tween 20. Final volume of the quenching solution was 10 μL. The resulting HTRF signal was measured after 30 minutes on an EnVision (Perkin-Elmer) reader using a time-resolved fluorescence protocol.
row,IC50 [nM],SMILES
1,3.1,"CCC(O)(c1ncc(-c2cc(C)cc(Nc3cc(C4CC4)ccn3)n2)s1)[C@H]1CC[C@H](C(N)=O)CC1 (mixture of isomers) [Example 2, racemic mixture, trans-4-[1-(5-{6-[(4-cyclopropylpyridin-2-yl)amino]-4-methylpyridin-2-yl}-1,3-thiazol-2-yl)-1-hydroxypropyl]cyclohexanecarboxamide]"
2,2.9,"CCC(O)(c1ncc(-c2cc(C)cc(Nc3cc(C4CC4)ccn3)n2)s1)[C@H]1CC[C@H](C(=O)O)CC1 (single isomer, unassigned) [Example 1, Enantiomer 1, trans-4-[1-(5-{6-[(4-cyclopropylpyridin-2-yl)amino]-4-methylpyridin-2-yl}-1,3-thiazol-2-yl)-1-hydroxypropyl]cyclohexanecarboxylic acid]"

# Same assay, conditions: recombinant human GST-Syk 5 pM, ATP 25 μM; class symbols; read-out: rhSyk activity (IC50)
row,SMILES,IC50 [nM]
1,"CCC(O)(c1ncc(-c2cc(C)cc(Nc3cc(C4CC4)ccn3)n2)s1)[C@H]1CC[C@H](C(=O)O)CC1 (mixture of isomers) [Example 1, racemic, trans-4-[1-(5-{6-[(4-Cyclopropylpyridin-2-yl)amino]-4-methylpyridin-2-yl}-1,3-thiazol-2-yl)-1-hydroxypropyl]cyclohexanecarboxylic acid]",≤ 100
2,"CCC(O)(c1ncc(-c2cc(C)cc(Nc3cc(C4CC4)ccn3)n2)s1)[C@H]1CC[C@H](C(N)=O)CC1 (mixture of isomers) [Example 2, racemic mixture, trans-4-[1-(5-{6-[(4-cyclopropylpyridin-2-yl)amino]-4-methylpyridin-2-yl}-1,3-thiazol-2-yl)-1-hydroxypropyl]cyclohexanecarboxamide]",≤ 100
3,"CCC(O)(c1ncc(-c2cc(C)cc(Nc3cc(C4CC4)ccn3)n2)s1)[C@H]1CC[C@H](C(=O)O)CC1 (single isomer, unassigned) [Example 1, Enantiomer 1, trans-4-[1-(5-{6-[(4-cyclopropylpyridin-2-yl)amino]-4-methylpyridin-2-yl}-1,3-thiazol-2-yl)-1-hydroxypropyl]cyclohexanecarboxylic acid]",≤ 100
4,"CCC(O)(c1ncc(-c2cc(C)cc(Nc3cc(C4CC4)ccn3)n2)s1)[C@H]1CC[C@H](C(N)=O)CC1 (single isomer, unassigned) [Example 2, Enantiomer 1, trans-4-[1-(5-{6-[(4-cyclopropylpyridin-2-yl)amino]-4-methylpyridin-2-yl}-1,3-thiazol-2-yl)-1-hydroxypropyl]cyclohexanecarboxamide]",≤ 100
5,"Cc1cc(Nc2cccc(-c3cnc(C(C)(O)[C@H]4CC[C@H](C(=O)O)CC4)s3)n2)ncc1F (single isomer, unassigned) [Example 5, trans-4-[(1R or 1S)-1-(5-{6-[(5-Fluoro-4-methylpyridin-2-yl)amino]pyridin-2-yl}-1,3-thiazol-2-yl)-1-hydroxyethyl]cyclohexanecarboxylic acid]",≤ 100
6,"Cc1cc(Nc2cccc(-c3cnc(C(C)(O)[C@H]4CC[C@H](C(=O)O)CC4)s3)n2)ncc1F (single isomer, unassigned) [Example 6, trans-4-[(1R or 1S)-1-(5-{6-[(5-Fluoro-4-methylpyridin-2-yl)amino]pyridin-2-yl}-1,3-thiazol-2-yl)-1-hydroxyethyl]cyclohexanecarboxylic acid]",≤ 100
7,"CC(O)(c1ncc(-c2cccc(Nc3cc(C(F)(F)F)ccn3)n2)s1)[C@H]1CC[C@H](C(=O)O)CC1 (single isomer, unassigned) [Example 7, trans-4-{(1R or 1S)-1-hydroxy-1-[5-(6-{[4-(trifluoromethyl)pyridin-2-yl]amino}pyridin-2-yl)-1,3-thiazol-2-yl]ethyl}cyclohexanecarboxylic acid]",≤ 100
8,"CC(O)(c1ncc(-c2cccc(Nc3cc(C(F)(F)F)ccn3)n2)s1)[C@H]1CC[C@H](C(=O)O)CC1 (single isomer, unassigned) [Example 8, trans-4-{(1R or 1S)-1-Hydroxy-1-[5-(6-{[4-(trifluoromethyl)pyridin-2-yl]amino}pyridin-2-yl)-1,3-thiazol-2-yl]ethyl}cyclohexanecarboxylic acid]",≤ 100

# Now from value to compound:
row,IC50 [nM],SMILES
1,≤ 100,"Cc1ccnc(Nc2cc(C)cc(-c3cnc(C(C)(O)[C@H]4CC[C@H](C(=O)O)CC4)s3)n2)c1 (relative stereo) [Example 14-1, trans-4-[1-hydroxy-1-(5-{4-methyl-6-[(4-methylpyridin-2-yl)amino]pyridin-2-yl}-1,3-thiazol-2-yl)ethyl]cyclohexanecarboxylic acid]"
2,≤ 100,"COc1ccnc(Nc2cc(C)cc(-c3cnc(C(C)(O)[C@H]4CC[C@H](C(=O)O)CC4)s3)n2)c1 (relative stereo) [Example 14-3, trans-4-[1-hydroxy-1-(5-{6-[(4-methoxypyridin-2-yl)amino]-4-methylpyridin-2-yl}-1,3-thiazol-2-yl)ethyl]cyclohexanecarboxylic acid]"
3,≤ 100,"Cc1cc(Nc2cc(C)c(Cl)cn2)nc(-c2cnc(C(C)(O)[C@H]3CC[C@H](C(=O)O)CC3)s2)c1 (relative stereo) [Example 14-5, trans-4-[1-(5-{6-[(5-chloro-4-methylpyridin-2-yl)amino]-4-methylpyridin-2-yl}-1,3-thiazol-2-yl)-1-hydroxyethyl]cyclohexanecarboxylic acid]"
4,100 to 1000,"CCCCOC(=O)[C@H]1CC[C@H](C(C)(O)c2ncc(-c3cc(C)cc(Nc4cc(C5CC5)ccn4)n3)s2)CC1 (relative stereo) [Example 14-6, butyl trans-4-[1-(5-{6-[(4-cyclopropylpyridin-2-yl)amino]-4-methylpyridin-2-yl}-1,3-thiazol-2-yl)-1-hydroxyethyl]cyclohexanecarboxylate]"
5,≤ 100,"Cc1cc(Nc2cc(C3CC3)ccn2)nc(-c2cnc(C(C)(O)[C@H]3CC[C@H](C(=O)O)CC3)s2)c1 (relative stereo) [Example 14-7, trans-4-[1-(5-{6-[(4-cyclopropylpyridin-2-yl)amino]-4-methylpyridin-2-yl}-1,3-thiazol-2-yl)-1-hydroxyethyl]cyclohexanecarboxylic acid]"
6,≤ 100,"Cc1cc(Nc2cc(C(C)C)ccn2)nc(-c2cnc(C(C)(O)[C@H]3CC[C@H](C(=O)O)CC3)s2)c1 (relative stereo) [Example 14-8, trans-4-{1-hydroxy-1-[5-(4-methyl-6-{[4-(propan-2-yl)pyridin-2-yl]amino}pyridin-2-yl)-1,3-thiazol-2-yl]ethyl}cyclohexanecarboxylic acid]"
7,≤ 100,"COC(=O)[C@H]1CC[C@H](C(O)c2ncc(-c3cc(C)cc(Nc4cc(C(F)(F)F)ccn4)n3)s2)CC1 (relative stereo) [Example 14-27, methyl trans-4-{hydroxy[5-(4-methyl-6-{[4-(trifluoromethyl)pyridin-2-yl]amino}pyridin-2-yl)-1,3-thiazol-2-yl]methyl}cyclohexanecarboxylate]"
8,≤ 100,"COc1ccnc(Nc2cccc(-c3cnc(C(C)(O)[C@H]4CC[C@H](C(=O)O)CC4)s3)n2)c1 (relative stereo) [Example 14-41, trans-4-[1-hydroxy-1-(5-{6-[(4-methoxypyridin-2-yl)amino]pyridin-2-yl}-1,3-thiazol-2-yl)ethyl]cyclohexanecarboxylic acid]"
9,≤ 100,"CC(O)(c1ncc(-c2cccc(Nc3cc(C(F)F)ccn3)n2)s1)[C@H]1CC[C@H](C(=O)O)CC1 (relative stereo) [Example 14-42, trans-4-{1-[5-(6-{[4-(difluoromethyl)pyridin-2-yl]amino}pyridin-2-yl)-1,3-thiazol-2-yl]-1-hydroxyethyl}cyclohexanecarboxylic acid]"
10,≤ 100,"CC(C)c1ccnc(Nc2cccc(-c3cnc(C(C)(O)[C@H]4CC[C@H](C(=O)O)CC4)s3)n2)c1 (relative stereo) [Example 14-43, trans-4-{1-hydroxy-1-[5-(6-{[4-(propan-2-yl)pyridin-2-yl]amino}pyridin-2-yl)-1,3-thiazol-2-yl]ethyl}cyclohexanecarboxylic acid]"
